Laboratory results: US8906855B2, “Methods and compositions for treating conditions related to lack of blood supply, shock and neuronal injuries” (Vivacelle Bio, Inc., priority 2007, dated 2014)

Legend:
[1] = Battion et al. 1968; cited from earlier work
[2] = 1 atm; from The Engineering Toolbox; cited from earlier work
[3] = Nitric oxide uptake/content of the emulsion by mass spectrometry; conditions: equilibrated 60 minutes with 100 ppm nitric oxide in helium; ten samples
Description: Some samples (1 ml each) were left open to air in 2.0 ml tubes for 30 minutes prior to dissolved gas analysis. In other experiments the emulsion was placed into a 15 ml tube. The headspace was filled with the gas under study and the gas was allowed to enter the emulsion by equilibration over 60 minutes with the tube on its side to increase the gas emulsion interaction. 50 μL drawn from each of these fluids were injected into a Sievers purge vessel at 37° C. containing 36 ml of a mildly acidic solution consisting of 32 ml of 1M HCL and 4 ml of 0.5M ascorbic acid. […] Signals generated at m/z=32 upon injection of RL and lipid emulsion samples were integrated using Peakfit and compared to those obtained with distilled water.
In another set of experiments we measured the uptake of nitric oxide by a commercially available 20% soybean oil emulsion, Liposyn III 20%. This emulsion contains 20% soybean oil, 1.2% egg phospholipids and 2.5% glycerin in water. Using NaOH pH was adjusted to 8.3. […] 100 ppm nitric oxide in helium was used to purge the headspace for two minutes taking care not to bubble the fluid. For sixty minutes the sample was allowed to reach gas-liquid equilibrium with the tube placed on its side to maximize gas-emulsion contact. The ***nitric oxide content was measured in ten samples that were equilibrated with nitric oxide and ten samples that were equilibrated with room air.

[4] = cited from earlier work
[5] = published value; cited from earlier work

Q: With O=O [Oxygen] as the compound, how does the “solubility in lipid relative to water” value [1] read?
A: The value was 4.41 times.

Q: For O [Water, water], which “Oxygen Content at 25° C. and Sea level Pressure” value [2] is on record?
A: Its value is 8.3 mg/L.

Q: What about the “nitric oxide content, mean and standard error” value [3] of the same compound?
A: The value was 2.12×10^−3+/−0.17×10^−3.

Q: With [Xe] [Xenon] as the compound, how does the “minimum alveolar concentration (MAC)” value ([4]; anesthetic) read?
A: Its value is 71%.

Q: And the “more potent than N2O as an anesthetic” value ([4]; in vivo)?
A: The value was 50%.

Q: Which oxygen release time [5] does the source give for hemoglobin here?
A: Its oxygen release time is 17.5 ms.
